These results are taken from PubChem BioAssay AID248 (DTP/NCI, 2004).

Values joined by “and” are separate entries in the source; they are usually repeats but may differ in a detail not shown here. Identical values can stand only once. Toxic doses and inconclusive results are not listed. Square brackets hold non-standard residues; d marks the D form. Peptide text beside a SMILES is read from it. * marks the point of attachment. ξ: configuration not given here. ξF = NC(Cc1ccccc1)C(=O)O; Cbz = O=C(OCc1ccccc1)*; OBn = c1ccc(CO*)cc1

This assay deals with L1210 leukemia ip in BDF1 mice, survival T/C. Put plainly: NCI In Vivo Anticancer Drug Screen. Data for tumor model L1210 Leukemia (intraperitoneal) in B6D2F1 (BDF1) mice. The following applies: endpoint: mean survival time, higher = longer survival. A digest of the protocol: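 Ratio derived from survival: compound-dosed mice over vehicle-dosed mice, all bearing a transplantable tumor.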

[1] abbreviates: dose: 100.0 mg/kg/injection, schedule: Q04DX003 (ip), vehicle: saline with Tween-80.
Setting [2] is: dose: 200.0 mg/kg/injection, schedule: Q04DX003 (ip), vehicle: saline with Tween-80.
[3] abbreviates: dose: 400.0 mg/kg/injection, schedule: Q04DX003 (ip), vehicle: saline with Tween-80.
The mark [4] stands for this setting: dose: 100.0 mg/kg/injection, schedule: Q01DX009 (ip), vehicle: saline with Tween-80.
The mark [5] stands for this setting: dose: 200.0 mg/kg/injection, schedule: Q01DX009 (ip), vehicle: saline with Tween-80.
The mark [6] stands for this setting: dose: 400.0 mg/kg/injection, schedule: Q01DX009 (ip), vehicle: saline with Tween-80.

Turning to `[N-]=[N+]=C1C(=O)NC(=O)N2C3CC(O)C(COC12)O3` (stereo unspecified), the T/C reads like this: (dose: 32.0 mg/kg/injection, schedule: Q01DX Z (oral), vehicle: saline) 110 % of control; (dose: 63.0 mg/kg/injection, schedule: Q01DX Z (oral), vehicle: saline) 105 % of control; (dose: 100.0 mg/kg/injection, schedule: Q01DX009 (ip), vehicle: saline) 111 % of control; (dose: 100.0 mg/kg/injection, schedule: Q04DX003 (ip), vehicle: saline) 102 % of control; (dose: 125.0 mg/kg/injection, schedule: Q01DX Z (oral), vehicle: saline) 101 % of control; (dose: 133.0 mg/kg/injection, schedule: Q01DX006 (iv), vehicle: saline) 106 % of control. The T/C (dose: 133.0 mg/kg/injection, schedule: Q01DX Z (ip), vehicle: carboxymethylcellulose (CMC)) is 104 % of control; the T/C (dose: 133.0 mg/kg/injection, schedule: Q01DX Z (ip), vehicle: saline) was 113 % of control and 119 % of control; the T/C (dose: 200.0 mg/kg/injection, schedule: Q01DX006 (iv), vehicle: saline) is 110 % of control; the T/C (dose: 200.0 mg/kg/injection, schedule: Q01DX009 (ip), vehicle: saline) was 114 % of control; the T/C (dose: 200.0 mg/kg/injection, schedule: Q01DX Z (ip), vehicle: carboxymethylcellulose (CMC)) is 105 % of control; the T/C (dose: 200.0 mg/kg/injection, schedule: Q01DX Z (ip), vehicle: saline) is 117 % of control. In addition, the T/C reads like this: (dose: 200.0 mg/kg/injection, schedule: Q04DX003 (ip), vehicle: saline) 107 % of control; (dose: 250.0 mg/kg/injection, schedule: Q01DX Z (oral), vehicle: carboxymethylcellulose (CMC)) 108 % of control; (dose: 250.0 mg/kg/injection, schedule: Q01DX Z (oral), vehicle: saline) 105 % of control and 107 % of control; (dose: 300.0 mg/kg/injection, schedule: Q01DX006 (iv), vehicle: saline) 118 % of control; (dose: 300.0 mg/kg/injection, schedule: Q01DX Z (ip), vehicle: saline) 150 % of control; (dose: 400.0 mg/kg/injection, schedule: Q04DX003 (ip), vehicle: saline) 107 % of control. In addition, the T/C (dose: 450.0 mg/kg/injection, schedule: Q01DX006 (iv), vehicle: saline) is 116 % of control; the T/C (dose: 500.0 mg/kg/injection, schedule: Q01DX Z (oral), vehicle: carboxymethylcellulose (CMC)) is 98 % of control; the T/C (dose: 500.0 mg/kg/injection, schedule: Q01DX Z (oral), vehicle: saline) is 107 % of control and 117 % of control; the T/C (dose: 675.0 mg/kg/injection, schedule: Q01DX006 (iv), vehicle: saline) is 112 % of control; the T/C (dose: 675.0 mg/kg/injection, schedule: Q01DX Z (ip), vehicle: saline) was 111 % of control; the T/C (dose: 800.0 mg/kg/injection, schedule: Q01DX006 (iv), vehicle: saline) was 102 % of control. For the same compound, the T/C runs as follows: (dose: 1000.0 mg/kg/injection, schedule: Q01DX006 (iv), vehicle: saline) 102 % of control; (dose: 1000.0 mg/kg/injection, schedule: Q01DX Z (oral), vehicle: carboxymethylcellulose (CMC)) 100 % of control; (dose: 2000.0 mg/kg/injection, schedule: Q01DX Z (oral), vehicle: carboxymethylcellulose (CMC)) 107 % of control.

Consider `NC(=O)c1cc(Cl)ccn1`, for which the T/C is 101 % of control (dose: 100.0 mg/kg/injection, schedule: Q04DX002 (ip), vehicle: saline with Tween-80) and 99 % of control (dose: 200.0 mg/kg/injection, schedule: Q04DX002 (ip), vehicle: saline with Tween-80).

On to `CCN(CC)C(=S)[S][Pb]([c]1ccccc1)([c]1ccccc1)[c]1ccccc1`, for which the T/C by setting is: (dose: 100.0 mg/kg/injection, schedule: Q01DX001 (ip), vehicle: steriod suspending solution) 97 % of control; (dose: 200.0 mg/kg/injection, schedule: Q01DX001 (ip), vehicle: steriod suspending solution) 92 % of control.

For the compound `O=C(CNC(=O)OCc1ccccc1)NC(Cc1ccccc1)C(=O)OCc1ccccc1` (stereo not drawn) (Cbz-Gly-[ξF]-OBn), the T/C reads like this: under setting [1], 101 % of control; under setting [2], 103 % of control; under setting [3], 95 % of control.

With `C(/CCC/C=N/Nc1ccccc1)=N\Nc1ccccc1`, the T/C by setting is: (dose: 50.0 mg/kg/injection, schedule: Q01DX001 (ip), vehicle: saline) 103 % of control; (dose: 100.0 mg/kg/injection, schedule: Q01DX001 (ip), vehicle: saline) 100 % of control; (dose: 200.0 mg/kg/injection, schedule: Q01DX001 (ip), vehicle: saline) 109 % of control; (dose: 400.0 mg/kg/injection, schedule: Q01DX001 (ip), vehicle: saline) 100 % of control.

`CCOC12c3c4cccc3C(=O)c3cccc(c31)C(=O)c1cccc(c12)C4=O`: the T/C by setting is: under setting [4], 103 % of control; under setting [1], 105 % of control; under setting [5], 111 % of control; under setting [2], 93 % of control; under setting [6], 109 % of control; under setting [3], 96 % of control.

On to `NNC(=O)C(Oc1ccccc1Cl)c1ccccc1` (stereo unspecified), for which the T/C by setting is: (dose: 100.0 mg/kg/injection, schedule: Q01DX001 (ip), vehicle: carboxymethylcellulose (CMC)) 105 % of control; (dose: 200.0 mg/kg/injection, schedule: Q01DX001 (ip), vehicle: carboxymethylcellulose (CMC)) 97 % of control; (dose: 400.0 mg/kg/injection, schedule: Q01DX001 (ip), vehicle: carboxymethylcellulose (CMC)) 105 % of control.

`O=C1c2ccccc2S(=O)(=O)N1CC(O)COc1ccc(Cl)cc1` (stereo unspecified): the T/C was 93 % of control under setting [4], 102 % of control under setting [5] and 101 % of control under setting [6].

Take `Cc1ccc(C(O)(c2ccccc2)C2C(c3ccccc3)N2C2CCCCC2)cc1` (stereo unspecified): the T/C is 92 % of control (dose: 100.0 mg/kg/injection, schedule: Q04DX003 (ip), vehicle: saline sonified); 87 % of control (dose: 200.0 mg/kg/injection, schedule: Q04DX003 (ip), vehicle: saline sonified); 89 % of control (dose: 400.0 mg/kg/injection, schedule: Q04DX003 (ip), vehicle: saline sonified).

For the compound `O=C(C[n+]1ccccc1Br)c1ccc2ccccc2c1`, the T/C is, setting by setting: (dose: 9.38 mg/kg/injection, schedule: Q01DX001 (ip), vehicle: other) 104 % of control; (dose: 18.75 mg/kg/injection, schedule: Q01DX001 (ip), vehicle: other) 103 % of control; (dose: 37.5 mg/kg/injection, schedule: Q01DX001 (ip), vehicle: other) 103 % of control.

Turning to `O=C(Nc1ccccc1C(=O)N/N=C/c1c(O)ccc2ccccc12)c1ccccc1Cl`, the T/C was 95 % of control (dose: 100.0 mg/kg/injection, schedule: Q01DX001 (ip), vehicle: Klucel (hydroxypropylcellulose) (HPC)); 99 % of control and 103 % of control (dose: 100.0 mg/kg/injection, schedule: Q01DX009 (ip), vehicle: Klucel (hydroxypropylcellulose) (HPC)); 95 % of control and 104 % of control (dose: 100.0 mg/kg/injection, schedule: Q04DX002 (ip), vehicle: Klucel (hydroxypropylcellulose) (HPC)); 100 % of control (dose: 100.0 mg/kg/injection, schedule: Q04DX003 (ip), vehicle: Klucel (hydroxypropylcellulose) (HPC)); 93 % of control (dose: 200.0 mg/kg/injection, schedule: Q01DX001 (ip), vehicle: Klucel (hydroxypropylcellulose) (HPC)); 101 % of control and 102 % of control (dose: 200.0 mg/kg/injection, schedule: Q01DX009 (ip), vehicle: Klucel (hydroxypropylcellulose) (HPC)). The T/C runs as follows: (dose: 200.0 mg/kg/injection, schedule: Q04DX002 (ip), vehicle: Klucel (hydroxypropylcellulose) (HPC)) 103 % of control; (dose: 200.0 mg/kg/injection, schedule: Q04DX003 (ip), vehicle: Klucel (hydroxypropylcellulose) (HPC)) 96 % of control; (dose: 400.0 mg/kg/injection, schedule: Q01DX001 (ip), vehicle: Klucel (hydroxypropylcellulose) (HPC)) 95 % of control; (dose: 400.0 mg/kg/injection, schedule: Q01DX009 (ip), vehicle: Klucel (hydroxypropylcellulose) (HPC)) 94 % of control and 95 % of control; (dose: 400.0 mg/kg/injection, schedule: Q04DX002 (ip), vehicle: Klucel (hydroxypropylcellulose) (HPC)) 93 % of control and 92 % of control; (dose: 400.0 mg/kg/injection, schedule: Q04DX003 (ip), vehicle: Klucel (hydroxypropylcellulose) (HPC)) 96 % of control.

Regarding `CCOc1ccc(NC(C)=O)c(OC(C)=O)c1`, the T/C reads like this: (dose: 75.0 mg/kg/injection, schedule: Q01DX001 (ip), vehicle: carboxymethylcellulose (CMC)) 95 % of control and 100 % of control; (dose: 150.0 mg/kg/injection, schedule: Q01DX001 (ip), vehicle: carboxymethylcellulose (CMC)) 100 % of control; (dose: 300.0 mg/kg/injection, schedule: Q01DX001 (ip), vehicle: carboxymethylcellulose (CMC)) 93 % of control.
